Molecular target: T1, NaV1.3 (Homo sapiens, UniProt Q9NY46)
T1 construct: expressed in transfected cells
Experiment: VIPR optical membrane potential assay with electrical stimulation, HEK293 cells stably expressing NaV1.3
Type: cell-based
Conditions: compound activity for the NaV1.3 receptors
Description: Compounds of the invention are useful as antagonists of voltage-gated sodium ion channels. Antagonist properties of test compounds were assessed as follows. Cells expressing the NaV of interest were placed into microtiter plates. After an incubation period, the cells were stained with fluorescent dyes sensitive to the transmembrane potential. The test compounds were added to the microtiter plate. The cells were stimulated with either chemical or electrical means to evoke a NaV dependent membrane potential change from unblocked channels, which was detected and measured with trans-membrane potential-sensitive dyes. Antagonists were detected as a decreased membrane potential response to the stimulus. The optical membrane potential assay utilized voltage-sensitive FRET sensors described by Gonzalez and Tsien (See, Gonzalez, J. E. and R. Y. Tsien (1995) “Voltage sensing by fluorescence resonance energy transfer in single cells” Biophys J 69(4): 1272-80, and Gonzalez, J. E. and R. Y. Tsien (1997) “Improved indicators of cell membrane potential that use fluorescence resonance energy transfer” Chem Biol 4(4): 269-77) in combination with instrumentation for measuring fluorescence changes such as the Voltage/Ion Probe Reader (VIPR®) (See, Gonzalez, J. E., K. Oades, et al. (1999) “Cell-based assays and instrumentation for screening ion-channel targets” Drug Discov Today 4(9): 431-439).
The following is an example of how NaV1.3 inhibition activity is measured using the optical membrane potential method #2. Other subtypes are performed in an analogous mode in a cell line expressing the NaV of interest.
HEK293 cells stably expressing NaV1.3 are plated into 96-well microtiter plates. After an appropriate incubation period, the cells are stained with the voltage sensitive dyes CC2-DMPE/DiSBAC2(3) as follows.
2×CC2-DMPE=20 μM CC2-DMPE: 10 mM CC2-DMPE is vortexed with an equivalent volume of 10% pluronic, followed by vortexing in required amount of HBSS containing 10 mM HEPES. Each cell plate will require 5 mL of 2×CC2-DMPE. 50 μL of 2×CC2-DMPE is added to wells containing washed cells, resulting in a 10 μM final staining concentration. The cells are stained for 30 minutes in the dark at RT.
2×DISBAC2(3) with ABSC1=6 μM DISBAC2(3) and 1 mM ABSC1: The required amount of 10 mM DISBAC2(3) is added to a 50 ml conical tube and mixed with 1 μL 10% pluronic for each mL of solution to be made and vortexed together. Then HBSS/HEPES is added to make up 2× solution. Finally, the ABSC1 is added.
The 2×DiSBAC2(3) solution can be used to solvate compound plates. Note that compound plates are made at 2× drug concentration. Wash stained plate again, leaving residual volume of 50 μL. Add 50 μL/well of the 2×DiSBAC2(3) w/ ABSC1. Stain for 30 minutes in the dark at RT.
The electrical stimulation instrument and methods of use are described in ION Channel Assay Methods PCT/US01/21652, herein incorporated by reference. The instrument comprises a microtiter plate handler, an optical system for exciting the coumarin dye while simultaneously recording the coumarin and oxonol emissions, a waveform generator, a current- or voltage-controlled amplifier, and a device for inserting electrodes in well. Under integrated computer control, this instrument passes user-programmed electrical stimulus protocols to cells within the wells of the microtiter plate.
Use the current-controlled amplifier to deliver stimulation wave pulses for 3 s. Two seconds of pre-stimulus recording are performed to obtain the un-stimulated intensities. Five seconds of post-stimulation recording are performed to examine the relaxation to the resting state.
Data are analyzed and reported as normalized ratios of background-subtracted emission intensities measured in the 460 nm and 580 nm channels. Background intensities are then subtracted from each assay channel. […]

T1 sequence (Q9NY46 whole entry): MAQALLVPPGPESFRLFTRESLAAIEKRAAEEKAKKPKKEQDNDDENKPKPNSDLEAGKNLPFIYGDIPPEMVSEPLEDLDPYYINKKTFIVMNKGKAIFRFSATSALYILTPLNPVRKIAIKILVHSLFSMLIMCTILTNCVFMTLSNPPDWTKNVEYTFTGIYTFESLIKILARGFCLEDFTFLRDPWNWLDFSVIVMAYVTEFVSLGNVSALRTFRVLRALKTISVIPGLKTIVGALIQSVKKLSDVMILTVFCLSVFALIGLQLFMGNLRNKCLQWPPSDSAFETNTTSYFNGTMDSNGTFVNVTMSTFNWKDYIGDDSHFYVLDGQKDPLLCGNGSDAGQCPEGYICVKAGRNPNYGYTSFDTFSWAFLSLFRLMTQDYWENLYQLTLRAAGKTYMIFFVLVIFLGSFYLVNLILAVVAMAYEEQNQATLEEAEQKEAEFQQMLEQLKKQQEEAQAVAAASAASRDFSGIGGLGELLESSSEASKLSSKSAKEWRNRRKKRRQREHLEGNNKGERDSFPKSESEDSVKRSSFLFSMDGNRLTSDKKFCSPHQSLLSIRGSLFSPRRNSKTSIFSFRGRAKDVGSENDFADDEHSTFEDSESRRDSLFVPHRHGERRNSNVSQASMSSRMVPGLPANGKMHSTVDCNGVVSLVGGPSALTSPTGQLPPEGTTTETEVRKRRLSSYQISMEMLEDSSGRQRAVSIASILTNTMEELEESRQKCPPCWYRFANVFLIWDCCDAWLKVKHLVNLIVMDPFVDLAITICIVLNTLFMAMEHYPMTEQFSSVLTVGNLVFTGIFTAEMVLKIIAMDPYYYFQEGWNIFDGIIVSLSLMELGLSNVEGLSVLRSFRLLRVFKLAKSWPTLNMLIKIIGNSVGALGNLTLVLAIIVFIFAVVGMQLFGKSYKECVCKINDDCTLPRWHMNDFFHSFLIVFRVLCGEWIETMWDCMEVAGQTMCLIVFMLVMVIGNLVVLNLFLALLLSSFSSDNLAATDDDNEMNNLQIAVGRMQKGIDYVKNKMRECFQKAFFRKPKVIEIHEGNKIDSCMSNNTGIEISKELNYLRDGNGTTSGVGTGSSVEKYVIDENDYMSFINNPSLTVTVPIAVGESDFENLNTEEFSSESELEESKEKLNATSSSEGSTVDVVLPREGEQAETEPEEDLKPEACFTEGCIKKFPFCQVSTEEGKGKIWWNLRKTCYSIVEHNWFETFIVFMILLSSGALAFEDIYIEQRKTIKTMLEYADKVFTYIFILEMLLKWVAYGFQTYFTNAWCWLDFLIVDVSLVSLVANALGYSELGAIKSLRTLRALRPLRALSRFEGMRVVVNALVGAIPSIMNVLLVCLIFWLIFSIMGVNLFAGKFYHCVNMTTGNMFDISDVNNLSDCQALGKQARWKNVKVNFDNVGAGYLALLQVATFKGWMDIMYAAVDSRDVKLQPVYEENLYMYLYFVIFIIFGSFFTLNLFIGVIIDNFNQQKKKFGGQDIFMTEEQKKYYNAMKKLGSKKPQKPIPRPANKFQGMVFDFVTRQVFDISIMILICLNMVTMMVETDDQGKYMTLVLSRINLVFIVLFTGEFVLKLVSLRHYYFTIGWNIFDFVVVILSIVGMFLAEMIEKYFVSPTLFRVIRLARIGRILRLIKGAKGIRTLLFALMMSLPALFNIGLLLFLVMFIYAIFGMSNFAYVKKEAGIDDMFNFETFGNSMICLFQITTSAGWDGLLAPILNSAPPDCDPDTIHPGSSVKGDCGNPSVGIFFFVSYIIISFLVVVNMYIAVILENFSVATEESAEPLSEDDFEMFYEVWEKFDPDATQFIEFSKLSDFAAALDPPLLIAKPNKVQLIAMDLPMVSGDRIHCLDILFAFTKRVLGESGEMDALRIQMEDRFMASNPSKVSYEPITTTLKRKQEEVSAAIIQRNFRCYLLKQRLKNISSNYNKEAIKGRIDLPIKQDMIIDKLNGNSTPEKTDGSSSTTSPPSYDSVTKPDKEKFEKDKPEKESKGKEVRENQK

| Structure (SMILES) | IC50 [µM] |
| --- | --- |
| COC(=O)NS(=O)(=O)c1ccc(NC(=O)CCn2ccc3cccc(Cl)c32)cc1 [Compound 1] | > 5 |
| NC(=O)NS(=O)(=O)c1ccc(NC(=O)CCn2ccc3cc(Cl)ccc32)cc1 [Compound 4] | > 5 |
| COC(=O)NS(=O)(=O)c1ccc(NC(=O)Cn2ccc3ccc(OC)cc32)cc1 [Compound 7] | > 5 |
| COC(=O)NS(=O)(=O)c1ccc(NC(=O)c2ccccc2)cc1 [Compound 9] | > 5 |
| COC(=O)NS(=O)(=O)c1ccc(NC(=O)[C@@H](C(C)C)N2CCCc3cc(Cl)ccc32)cc1 [Compound 10] | 2 to 5 |
| C[C@H](C(=O)Nc1ccc(S(=O)(=O)NC(=O)C2CCCC2)cc1)n1ccc2c(F)cccc21 [Compound 11, (R)—N-(4-(2-(4-fluoro-1H indol-1-yl)propanamido)phenylsulfonyl)cyclopentanecarboxamide] | > 5 |
| C[C@H](C(=O)Nc1ccc(S(=O)(=O)NC(=O)CC(C)(C)C)cc1)n1ccc2c(F)cccc21 [Compound 13] | > 5 |
| COC(=O)NS(=O)(=O)c1ccc(NC(=O)Cn2ccc3cc(C)ccc32)cc1 [Compound 14] | > 5 |
| COC(=O)NS(=O)(=O)c1ccc(NC(=O)[C@@H](C)n2ccc3ccc(Cl)cc32)cc1 [Compound 16] | 2 to 5 |
| COC(=O)NS(=O)(=O)c1ccc(NC(=O)[C@H](C)n2ccc3c(F)cccc32)cc1 [Compound 17] | > 5 |
| COC(=O)NS(=O)(=O)c1ccc(NC(=O)c2cc3c(F)cc(F)cc3[nH]2)cc1 [Compound 18] | > 5 |
| COC(=O)NS(=O)(=O)c1ccc(NC(=O)Cn2cc(C#N)c3ccccc32)cc1 [Compound 19] | > 5 |
| C[C@H](C(=O)Nc1ccc(S(=O)(=O)NC(=O)C2CC2)cc1)n1ccc2c(F)cccc21 [Compound 21] | > 5 |
| COC(=O)NS(=O)(=O)c1ccc(NC(=O)[C@H](C(C)C)N2CCCc3cc(Cl)ccc32)cc1 [Compound 24] | > 5 |
| COC(=O)NS(=O)(=O)c1ccc(NC(=O)Cn2ccc3cc(Cl)ccc32)cc1 [Compound 26] | > 5 |
| COC(=O)NS(=O)(=O)c1ccc(NC(=O)Cn2ccc3cc(F)ccc32)cc1 [Compound 27] | > 5 |
| C[C@H](C(=O)Nc1ccc(S(=O)(=O)NC(=O)Oc2ccc(F)cc2)cc1)n1ccc2c(F)cccc21 [Compound 29] | > 5 |
| COC(=O)NS(=O)(=O)c1ccc(C2CCN(C(=O)Cn3ccc4ccc(Cl)cc43)CC2)cc1 [Compound 32] | > 5 |
| COC(=O)NS(=O)(=O)c1ccc(NC(=O)Cn2c(C)cc3cc(Cl)ccc32)cc1 [Compound 33] | > 5 |
| COC(=O)NS(=O)(=O)c1ccc(NC(=O)C(C)Oc2ccc(Cl)cc2C)cc1 (stereo not drawn) [Compound 35] | > 5 |
| COC(=O)NS(=O)(=O)c1ccc(NC(=O)CCCOc2ccc(Cl)cc2Cl)cc1 [Compound 37] | > 5 |
| COC(=O)NS(=O)(=O)c1ccc(NC(=O)C2(c3ccc4c(c3)OCO4)CC2)cc1 [Compound 38] | > 5 |
| CCOC(=O)NS(=O)(=O)c1ccc(NC(=O)[C@@H](C)n2ccc3c(F)cccc32)cc1 [Compound 43, (R)-Ethyl 4-(2-(4-fluoro-1H-indol-1-yl)propanamido)phenylsulfonyl-carbamate] | > 5 |
| COC(=O)NS(=O)(=O)c1ccc(NC(=O)Cn2ccc3c(C#N)cccc32)cc1 [Compound 44] | > 5 |
| CC(=O)NS(=O)(=O)c1ccc(N)cc1 [Compound 45] | > 5 |
| CCC(=O)NS(=O)(=O)c1ccc(NC(=O)C(C)n2ccc3ccccc32)cc1 (stereo not drawn) [Compound 46] | > 5 |
| COC(=O)NS(=O)(=O)c1ccc(NC(=O)[C@@H](C)N2CCCc3ccccc32)cc1 [Compound 47] | > 5 |
| COC(=O)NS(=O)(=O)c1ccc(NC(=O)CCc2ccc(OC)cc2)cc1 [Compound 48] | > 5 |
| COc1ccccc1C(=O)NS(=O)(=O)c1ccc(NC(=O)COc2ccnc3c(C(F)(F)F)cccc23)cc1 [Compound 49] | > 5 |

The remaining lines, values ahead:

| IC50 [µM] | Structure (SMILES) |
| --- | --- |
| > 5 | COC(=O)NS(=O)(=O)c1ccc(NC(=O)C(C)Oc2cccc(Cl)c2Cl)cc1 (stereo in doubt) [Compound 58, (R)-methyl 4-(2,3-dichlorophenoxy)propanamido) phenylsulfonylcarbamate] |
| > 5 | COC(=O)NS(=O)(=O)c1ccc(NC(=O)NC2Cc3ccccc3C2)cc1 [Compound 2] |
| > 5 | COC(=O)NS(=O)(=O)c1ccc(NC(=O)COc2ccc(F)c(Cl)c2)cc1 [Compound 3] |
| > 5 | COC(=O)NS(=O)(=O)c1ccc(NC(=O)[C@H](CC(C)C)N2CCCc3cc(Cl)ccc32)cc1 [Compound 5] |
| < 2 | COC(=O)NS(=O)(=O)c1ccc(NC(=O)[C@@H](C)N2CCCc3cc(Cl)ccc32)cc1 [Compound 6, (R)-methyl 4-(2-(6-chloro-3,4-dihydroquinolin-1(2H)-yl)propanamido)phenylsulfonylcarbamate] |
| > 5 | COC(=O)NS(=O)(=O)c1ccc(NC(=O)Cn2ccc3cc(F)c(F)cc32)cc1 [Compound 8] |
| > 5 | COC(=O)NS(=O)(=O)c1ccc(NC(=O)Cn2cc(C)c3ccccc32)cc1 [Compound 12] |
| > 5 | COC(=O)NS(=O)(=O)c1ccc(NC(=O)c2cc3c(F)cccc3[nH]2)cc1 [Compound 15] |
| 2 to 5 | COC(=O)NS(=O)(=O)c1ccc(NC(=O)C(C)n2ccc3cc(Cl)ccc32)cc1 (stereo not drawn) [Compound 20] |
| < 2 | COC(=O)NS(=O)(=O)c1ccc(NC(=O)[C@@H](C)N2CCCc3cc(Cl)c(C)cc32)cc1 [Compound 22] |
| < 2 | COC(=O)NS(=O)(=O)c1ccc(NC(=O)[C@@H](CC(C)C)n2ccc3c(F)cccc32)cc1 [Compound 23, (R)-methyl 4-(2-(4-fluoro-1H-indol-1-yl)-4-methylpentanamido) phenylsulfonylcarbamate] |
| > 5 | COC(=O)NS(=O)(=O)c1ccc(NC(=O)[C@H](C)n2ccc3ccc(C(F)(F)F)cc32)cc1 [Compound 25] |
| > 5 | COC(=O)NS(=O)(=O)c1ccc(NC(=O)Cn2ccc3cccc(Cl)c32)cc1 [Compound 28] |
| > 5 | COC(=O)NS(=O)(=O)c1ccc(NC(=O)NCc2ccc(Cl)c(Cl)c2)cc1 [Compound 30, methyl 4-(3(3,4-dichlorobenzyl)ureido)phenylsulfonylcarbamate] |
| > 5 | CNC(=O)NS(=O)(=O)c1ccc(NC(=O)[C@@H](C)n2ccc3c(F)cccc32)cc1 [Compound 31, (R)-2-(4-fluoro-1H indol-1-yl)-N-(4-(N-(methylcarbamoyl)sulfamoyl)phenyl)propanamide] |
| < 2 | COC(=O)NS(=O)(=O)c1ccc(NC(=O)[C@@H](C)n2ccc3c(F)cccc32)cc1 [Compound 34] |
| > 5 | COC(=O)NS(=O)(=O)c1ccc(NC(=O)[C@@H](C)n2ccc3cccc(F)c32)cc1 [Compound 36] |
| > 5 | COC(=O)NS(=O)(=O)c1ccc(NC(=O)Cn2ccc3ccc(C(F)(F)F)cc32)cc1 [Compound 39] |
| 2 to 5 | COC(=O)NS(=O)(=O)c1ccc(NC(=O)[C@@H](C)n2ccc3ccccc32)cc1 [Compound 40] |
| > 5 | CCOC(=O)NS(=O)(=O)c1ccc(N2CCN(C(=O)[C@@H](C)N3CCCc4cc(F)ccc43)CC2)cc1 [Compound 41, (R)-ethyl 4-(4-(2-(6-fluoro-3,4-dihydroquinolin-1(2H)-yl)propanoyl)piperazin-1-yl)phenylsulfonylcarbamate] |
| > 5 | C[C@H](C(=O)Nc1ccc(S(=O)(=O)NC(=O)C2CCC2)cc1)n1ccc2c(F)cccc21 [Compound 42] |
| > 5 | COC(=O)NS(=O)(=O)c1ccc(N2CCN(C(=O)[C@@H](C)N3CCCc4cc(Cl)ccc43)CC2)cc1 [Compound 50] |
